Assay results reported in paper PMC5218480 (PLoS ONE, 2017).

Tested on: MV-4-11 cells
Assay: Gene expression microarray analysis (Affymetrix PrimeView) and GSEA
Assay type: cell-based, human
Set-up: RFU PODN (11730768_x_at) / Fold change /veh PODN (11730768_x_at) / RFU LINC00158 (11744669_a_at) / Fold change /veh LINC00158 (11744669_a_at) / RFU DUSP10 (11751237_a_at) / Fold change /veh DUSP10 (11751237_a_at) / RFU ID3 (11757404_x_at) / Fold change /veh ID3 (11757404_x_at) / RFU PLEKHG5 (11737974_s_at) / Fold change /veh PLEKHG5 (11737974_s_at) / RFU LRRC4B (11730491_at) / Fold change /veh LRRC4B (11730491_at) / RFU GIMAP4 (11747438_a_at) / Fold change /veh GIMAP4 (11747438_a_at) / RFU KRT8 (11758183_x_at) / Fold change /veh KRT8 (11758183_x_at) / RFU CNN1 (11734310_a_at) / Fold change /veh CNN1 (11734310_a_at) / RFU VPS37D (11726825_at) / Fold change /veh VPS37D (11726825_at) / RFU C10orf10 (11716522_x_at) / Fold change /veh C10orf10 (11716522_x_at) / RFU KIR2DL2 /// KIR2DL4 /// KIR2DL5A /// KIR2DL5B /// KIR2DS1 /// KIR2DS2 /// KIR2DS3 /// KIR2DS4 /// KIR3DL3 /// KIR3DL3 /// KIR3DS1 (11738374_at) / Fold change /veh KIR2DL2 /// KIR2DL4 /// KIR2DL5A /// KIR2DL5B /// KIR2DS1 /// KIR2DS2 /// KIR2DS3 /// KIR2DS4 /// KIR3DL3 /// KIR3DL3 /// KIR3DS1 (11738374_at) / RFU C1QL1 (11718748_at) / Fold change /veh C1QL1 (11718748_at) / RFU TMPRSS4 (11747572_a_at) / Fold change /veh TMPRSS4 (11747572_a_at) / RFU HAMP (11756126_x_at) / Fold change /veh HAMP (11756126_x_at) / RFU RNFT2 (11725882_a_at) / Fold change /veh RNFT2 (11725882_a_at) / RFU NR4A2 (11747474_a_at) / Fold change /veh NR4A2 (11747474_a_at) / RFU ABCC12 (11746883_a_at) / Fold change /veh ABCC12 (11746883_a_at) / RFU TMEM136 (11760407_x_at) / Fold change /veh TMEM136 (11760407_x_at) / RFU CLDN22 /// WWC2 (11732394_at) / Fold change /veh CLDN22 /// WWC2 (11732394_at) / RFU HLA-DPB1 (11760878_x_at) / Fold change /veh HLA-DPB1 (11760878_x_at) / RFU SPINT1 (11716480_a_at) / Fold change /veh SPINT1 (11716480_a_at) / RFU GAP43 (11754022_s_at) / Fold change /veh GAP43 (11754022_s_at) / RFU A4GNT (11735810_at) / Fold change /veh A4GNT (11735810_at) / RFU PRB3 (11715151_x_at) / Fold change /veh PRB3 (11715151_x_at) / RFU TUBB4B (11761932_at) / Fold change /veh TUBB4B (11761932_at) / RFU CAPN14 (11732068_a_at) / Fold change /veh CAPN14 (11732068_a_at) / RFU TMCC2 (11721928_a_at) / Fold change /veh TMCC2 (11721928_a_at) / RFU IRGQ (11745062_a_at) / Fold change /veh IRGQ (11745062_a_at) / RFU FAM174B (11720279_a_at) / Fold change /veh FAM174B (11720279_a_at) / RFU TMPRSS4 (11748680_a_at) / Fold change /veh TMPRSS4 (11748680_a_at) / RFU FAM212B (11763350_a_at) / Fold change /veh FAM212B (11763350_a_at) / RFU PLEKHG5 (11743358_a_at) / Fold change /veh PLEKHG5 (11743358_a_at) / RFU ZSCAN30 (11745921_a_at) / Fold change /veh ZSCAN30 (11745921_a_at) / RFU CMKLR1 (11741424_a_at) / Fold change /veh CMKLR1 (11741424_a_at) / RFU LOC101060620 /// MAPK8IP1 (11723275_at) / Fold change /veh LOC101060620 /// MAPK8IP1 (11723275_at) / RFU SPTSSB (11747773_x_at) / Fold change /veh SPTSSB (11747773_x_at) / RFU PRSS12 (11739890_at) / Fold change /veh PRSS12 (11739890_at) / RFU BIN1 (11741810_x_at) / Fold change /veh BIN1 (11741810_x_at) / RFU WNT11 (11732464_a_at) / Fold change /veh WNT11 (11732464_a_at) / RFU C10orf10 (11716521_a_at) / Fold change /veh C10orf10 (11716521_a_at) / RFU C5orf56 (11738089_at) / Fold change /veh C5orf56 (11738089_at) / RFU CYB561 (11721691_x_at) / Fold change /veh CYB561 (11721691_x_at) / RFU ANKRD19P (11752326_a_at) / Fold change /veh ANKRD19P (11752326_a_at) / RFU OR2T12 /// OR2T33 /// OR2T8 (11738714_s_at) / Fold change /veh OR2T12 /// OR2T33 /// OR2T8 (11738714_s_at) / RFU VCAN (11748164_a_at) / Fold change /veh VCAN (11748164_a_at) / RFU JSRP1 (11732532_at) / Fold change /veh JSRP1 (11732532_at) / RFU KRTAP10-11 (11738290_x_at) / Fold change /veh KRTAP10-11 (11738290_x_at) / RFU MYO3A (11730013_a_at) / Fold change /veh MYO3A (11730013_a_at) / RFU EBF3 (11725865_a_at) / Fold change /veh EBF3 (11725865_a_at) / RFU CAMK2N1 (11719241_x_at) / Fold change /veh CAMK2N1 (11719241_x_at) / RFU C5orf56 (11738088_a_at) / Fold change /veh C5orf56 (11738088_a_at) / RFU OLFML3 (11715873_a_at) / Fold change /veh OLFML3 (11715873_a_at) / RFU LOC100653217 /// NTM (11731650_a_at) / Fold change /veh LOC100653217 /// NTM (11731650_a_at) / RFU MAPK11 (11762145_a_at) / Fold change /veh MAPK11 (11762145_a_at) / RFU FIZ1 (11724087_x_at) / Fold change /veh FIZ1 (11724087_x_at) / RFU OASL (11726364_x_at) / Fold change /veh OASL (11726364_x_at) / RFU SOX15 (11748057_x_at) / Fold change /veh SOX15 (11748057_x_at) / RFU CD79A (11719716_a_at) / Fold change /veh CD79A (11719716_a_at) / RFU HIST1H1D (11736915_at) / Fold change /veh HIST1H1D (11736915_at) / RFU CASKIN2 (11723855_a_at) / Fold change /veh CASKIN2 (11723855_a_at) / RFU LOC730098 (11760151_x_at) / Fold change /veh LOC730098 (11760151_x_at) / RFU OR4N2 (11742367_at) / Fold change /veh OR4N2 (11742367_at) / RFU PRRT2 (11749266_a_at) / Fold change /veh PRRT2 (11749266_a_at) / RFU SNX32 (11753110_a_at) / Fold change /veh SNX32 (11753110_a_at) / RFU CDHR5 (11726645_a_at) / Fold change /veh CDHR5 (11726645_a_at) / RFU RCAN1 (11760418_a_at) / Fold change /veh RCAN1 (11760418_a_at) / RFU FAM167A (11723789_a_at) / Fold change /veh FAM167A (11723789_a_at) / RFU FAM26E (11764081_at) / Fold change /veh FAM26E (11764081_at) / RFU ISYNA1 (11749810_s_at) / Fold change /veh ISYNA1 (11749810_s_at) / RFU ACY1 (11761880_at) / Fold change /veh ACY1 (11761880_at) / RFU 11764098_at / Fold change /veh 11764098_at / RFU SAMD14 (11745864_x_at) / Fold change /veh SAMD14 (11745864_x_at) / RFU NPB (11741838_a_at) / Fold change /veh NPB (11741838_a_at) / RFU TMPRSS6 (11731388_a_at) / Fold change /veh TMPRSS6 (11731388_a_at) / RFU KRTAP10-2 (11738614_at) / Fold change /veh KRTAP10-2 (11738614_at) / RFU ARHGAP8 /// PRR5-ARHGAP8 (11727945_x_at) / Fold change /veh ARHGAP8 /// PRR5-ARHGAP8 (11727945_x_at) / RFU KRTAP5-7 /// NADSYN1 (11734609_at) / Fold change /veh KRTAP5-7 /// NADSYN1 (11734609_at) / RFU RASL12 (11751679_a_at) / Fold change /veh RASL12 (11751679_a_at) / RFU CDKN2B (11736163_a_at) / Fold change /veh CDKN2B (11736163_a_at) / RFU PRF1 (11729649_at) / Fold change /veh PRF1 (11729649_at) / RFU, ZNF638 /// ZNF638-IT1 / Fold change vs veh, ZNF638 /// ZNF638-IT1 / RFU, PANK3 / Fold change vs veh, PANK3 / RFU, SH3YL1 / Fold change vs veh, SH3YL1 / RFU, ZEB2 / Fold change vs veh, ZEB2 / RFU, NRIP1 / Fold change vs veh, NRIP1 / RFU, PTTG1IP / Fold change vs veh, PTTG1IP / RFU, CAPN2 / Fold change vs veh, CAPN2 / RFU, MED14 / Fold change vs veh, MED14 / RFU, SNORA58 / Fold change vs veh, SNORA58 / RFU, C1orf63 / Fold change vs veh, C1orf63 / RFU, LRRFIP1 / Fold change vs veh, LRRFIP1 / RFU, NDUFAF7 / Fold change vs veh, NDUFAF7 / RFU, SLC12A2 / Fold change vs veh, SLC12A2 / RFU, IBTK / Fold change vs veh, IBTK / RFU, ESF1 / Fold change vs veh, ESF1 / Fold change vs veh, TMEM50B / RFU, TAOK1 / Fold change vs veh, TAOK1 / RFU, ACBD3 / Fold change vs veh, ACBD3 / RFU, TMA16 / Fold change vs veh, TMA16 / RFU, RWDD3 / Fold change vs veh, RWDD3 / RFU, BCAT1 / Fold change vs veh, BCAT1 / RFU, EDEM3 / Fold change vs veh, EDEM3 / RFU, TMEM33 / Fold change vs veh, TMEM33 / RFU, WDR75 / Fold change vs veh, WDR75 / RFU, AHCTF1 / Fold change vs veh, AHCTF1 / RFU, TFRC / Fold change vs veh, TFRC / RFU, ZDHHC17 / Fold change vs veh, ZDHHC17 / RFU, NOM1 / Fold change vs veh, NOM1 / RFU, ARL8B / Fold change vs veh, ARL8B / RFU, ZBTB11 / Fold change vs veh, ZBTB11 / RFU, TAMM41 / Fold change vs veh, TAMM41 / RFU, KIAA1704 /// LOC100996395 / Fold change vs veh, KIAA1704 /// LOC100996395 / RFU, ING1 / Fold change vs veh, ING1 / RFU, TRMT61B / Fold change vs veh, TRMT61B / RFU, FUBP3 / Fold change vs veh, FUBP3 / RFU, TP53 / Fold change vs veh, TP53 / RFU, TNKS2 / Fold change vs veh, TNKS2 / RFU, ZFP14 / Fold change vs veh, ZFP14 / RFU, ACTR2 / Fold change vs veh, ACTR2 / RFU, PPP3R1 / Fold change vs veh, PPP3R1 / RFU, PIK3R1 / Fold change vs veh, PIK3R1 / RFU, HNRNPA1 / Fold change vs veh, HNRNPA1 / RFU, RNF170 / Fold change vs veh, RNF170 / RFU, ZNF28 / Fold change vs veh, ZNF28 / RFU, RNGTT / Fold change vs veh, RNGTT / RFU, OGT / Fold change vs veh, OGT / RFU, BRD1 / Fold change vs veh, BRD1 / RFU, MARS / Fold change vs veh, MARS / RFU, ZNF655 / Fold change vs veh, ZNF655 / RFU, FAHD1 / Fold change vs veh, FAHD1 / RFU, BDP1 / Fold change vs veh, BDP1 / RFU, LRRCC1 / Fold change vs veh, LRRCC1 / RFU, ARID1A / Fold change vs veh, ARID1A / RFU, ZNF146 / Fold change vs veh, ZNF146 / RFU, ZNF330 / Fold change vs veh, ZNF330 / RFU, GPN3 / Fold change vs veh, GPN3 / RFU, C9orf123 / Fold change vs veh, C9orf123 / RFU, N4BP2L2 / Fold change vs veh, N4BP2L2 / RFU, ARFIP1 / Fold change vs veh, ARFIP1 / RFU, FAM179B / Fold change vs veh, FAM179B / RFU, BCL10 / Fold change vs veh, BCL10 / RFU, UHRF1BP1L / Fold change vs veh, UHRF1BP1L / RFU, BET1 / Fold change vs veh, BET1 / RFU, CNOT2 / Fold change vs veh, CNOT2 / RFU, ZNF268 / Fold change vs veh, ZNF268 / Fold change vs veh, ZNF507 / RFU, DGCR2 / Fold change vs veh, DGCR2 / RFU, WDSUB1 / Fold change vs veh, WDSUB1 / Fold change vs veh, HSP90B1 /// MIR3652 / RFU, ADSS / Fold change vs veh, ADSS / RFU, GK / Fold change vs veh, GK / RFU, ZNF148 / Fold change vs veh, ZNF148 / RFU, TAF9 / Fold change vs veh, TAF9 / RFU, SLC1A5 / Fold change vs veh, SLC1A5 / RFU, SLMO2 / Fold change vs veh, SLMO2 / RFU, ABCC4 / Fold change vs veh, ABCC4 / RFU, LOC101060439 /// RAP1B / Fold change vs veh, LOC101060439 /// RAP1B / RFU, RFX7 / Fold change vs veh, RFX7 / RFU, GTPBP10 / Fold change vs veh, GTPBP10 / RFU, CNEP1R1 / Fold change vs veh, CNEP1R1 / RFU, BIVM-ERCC5 /// ERCC5 / Fold change vs veh, BIVM-ERCC5 /// ERCC5 / RFU, ILF3 / Fold change vs veh, ILF3 / RFU 11762660_at / Fold change /veh 11762660_at / RFU VCAN (11757783_s_at) / Fold change /veh VCAN (11757783_s_at) / RFU DDX43 (11728927_at) / Fold change /veh DDX43 (11728927_at) / RFU KRT8 (11758188_x_at) / Fold change /veh KRT8 (11758188_x_at) / RFU NKD1 (11759106_at) / Fold change /veh NKD1 (11759106_at) / RFU SRD5A1 (11742802_a_at) / Fold change /veh SRD5A1 (11742802_a_at) / RFU TPSAB1 /// TPSB2 (11721975_s_at) / Fold change /veh TPSAB1 /// TPSB2 (11721975_s_at) / RFU GSTM3 (11746129_a_at) / Fold change /veh GSTM3 (11746129_a_at) / RFU IL23R (11737362_x_at) / Fold change /veh IL23R (11737362_x_at) / RFU TMEM51 (11727254_a_at) / Fold change /veh TMEM51 (11727254_a_at) / RFU PIWIL2 (11732686_x_at) / Fold change /veh PIWIL2 (11732686_x_at) / RFU ORM1 (11744905_x_at) / Fold change /veh ORM1 (11744905_x_at) / RFU CCDC152 (11743942_at) / Fold change /veh CCDC152 (11743942_at) / RFU ECM1 (11717891_a_at) / Fold change /veh ECM1 (11717891_a_at) / RFU IL23R (11748794_a_at) / Fold change /veh IL23R (11748794_a_at) / RFU TNFAIP8L3 (11732012_x_at) / Fold change /veh TNFAIP8L3 (11732012_x_at) / RFU MBOAT4 (11741988_at) / Fold change /veh MBOAT4 (11741988_at) / RFU 11764193_at / Fold change /veh 11764193_at / RFU TMEM53 (11763286_at) / Fold change /veh TMEM53 (11763286_at) / RFU MAGEB2 (11727129_at) / Fold change /veh MAGEB2 (11727129_at) / RFU TMEM200A (11744735_a_at) / Fold change /veh TMEM200A (11744735_a_at) / RFU CCDC152 (11751479_a_at) / Fold change /veh CCDC152 (11751479_a_at) / RFU FAM211A (11726209_a_at) / Fold change /veh FAM211A (11726209_a_at) / RFU RGS16 (11746705_a_at) / Fold change /veh RGS16 (11746705_a_at) / RFU VCAN (11755009_s_at) / Fold change /veh VCAN (11755009_s_at) / RFU RHOB (11743442_s_at) / Fold change /veh RHOB (11743442_s_at) / RFU RGS16 (11720943_a_at) / Fold change /veh RGS16 (11720943_a_at) / RFU RGS16 (11720944_at) / Fold change /veh RGS16 (11720944_at) / RFU, VPS4B / Fold change vs veh, VPS4B / RFU, CREB1 / Fold change vs veh, CREB1 / RFU, DNAJC13 / Fold change vs veh, DNAJC13 / RFU, GNAQ / Fold change vs veh, GNAQ / RFU, CDK5R1 / Fold change vs veh, CDK5R1 / RFU, ZRANB3 / Fold change vs veh, ZRANB3 / RFU, CUL4A / Fold change vs veh, CUL4A / RFU, CCNY / Fold change vs veh, CCNY / RFU, UFL1 / Fold change vs veh, UFL1 / RFU, COG3 / Fold change vs veh, COG3 / RFU, DIAPH2 / Fold change vs veh, DIAPH2 / RFU, SKA2 / Fold change vs veh, SKA2 / RFU, AFF3 / Fold change vs veh, AFF3 / RFU, LMF1 / Fold change vs veh, LMF1 / RFU, IPO11 / Fold change vs veh, IPO11 / RFU, DFFB / Fold change vs veh, DFFB / RFU, FOXP1 / Fold change vs veh, FOXP1 / RFU, CARD8 / Fold change vs veh, CARD8 / RFU, STRN3 / Fold change vs veh, STRN3 / RFU, ADK / Fold change vs veh, ADK / RFU, RASSF2 / Fold change vs veh, RASSF2 / RFU, WIPF1 / Fold change vs veh, WIPF1 / RFU, LARP1B / Fold change vs veh, LARP1B / RFU, RASA1 / Fold change vs veh, RASA1 / RFU, RB1 / Fold change vs veh, RB1 / RFU, PPFIA1 / Fold change vs veh, PPFIA1 / RFU, MAT2A / Fold change vs veh, MAT2A / RFU, CCT5 / Fold change vs veh, CCT5 / RFU, WDR92 / Fold change vs veh, WDR92 / RFU, CUX1 / Fold change vs veh, CUX1 / RFU, TTC7A / Fold change vs veh, TTC7A / RFU, TMEM135 / Fold change vs veh, TMEM135 / RFU, DEPTOR / Fold change vs veh, DEPTOR / RFU, CPM / Fold change vs veh, CPM / RFU, DNAJB6 / Fold change vs veh, DNAJB6 / RFU, CACNA2D3 / Fold change vs veh, CACNA2D3 / RFU, DTX4 / Fold change vs veh, DTX4 / RFU, TFCP2 / Fold change vs veh, TFCP2 / RFU, GMCL1 /// GMCL1P1 / Fold change vs veh, GMCL1 /// GMCL1P1 / RFU, AEBP2 / Fold change vs veh, AEBP2 / RFU, SNHG1 /// SNORD22 /// SNORD25 /// SNORD26 /// SNORD27 /// SNORD28 /// SNORD29 /// SNORD31 / Fold change vs veh, SNHG1 /// SNORD22 /// SNORD25 /// SNORD26 /// SNORD27 /// SNORD28 /// SNORD29 /// SNORD31 / Fold change (Aza/veh), C12orf56 (ProbeSet 11735607_a_at) / Fold change (ACY-1035/veh), C12orf56 (ProbeSet 11735607_a_at) / Fold change (Aza/veh), FGFR1OP (ProbeSet 11751329_s_at) / Fold change (ACY-1035/veh), FGFR1OP (ProbeSet 11751329_s_at) / Fold change (Aza/veh), VPS36 (ProbeSet 11739960_a_at) / Fold change (ACY-1035/veh), VPS36 (ProbeSet 11739960_a_at) / RFU SYPL1 (11715823_x_at) / Fold change /veh SYPL1 (11715823_x_at) / RFU IGFBP7 (11715501_s_at) / Fold change /veh IGFBP7 (11715501_s_at) / RFU REEP3 (11722064_at) / Fold change /veh REEP3 (11722064_at) / RFU IGLL1 (11728026_x_at) / Fold change /veh IGLL1 (11728026_x_at): dose or concentration left out as unconfirmed
Conditions: ProbeSet 11721611_a_at; LIST D

With `Nc1ccc(-c2cccs2)cc1NC(=O)c1ccc2c(c1)cc(C1CC1)n2CCN1CCOCC1` [ACY-1035] the “Fold change vs veh, IPO11” value was 0.84.
